Measured values from ChEMBL document CHEMBL1158726, “Taxoids and abietanes from callus cultures of Taxus cuspidata” (2005).

How the values were obtained:
Format in all cases: functional, A2780 ADR
[1] = Reversal of multidrug resistance in human 2780AD cells assessed as [3H]vincristine accumulation at 1 ug/mL after 2 hrs relative to control
[2] = Reversal of multidrug resistance in human 2780AD cells assessed as [3H]vincristine accumulation at 1 ug/mL after 2 hrs relative to verapamil
[3] = Reversal of multidrug resistance in human 2780AD cells assessed as [3H]vincristine accumulation at 0.1 ug/mL after 2 hrs relative to verapamil
[4] = Reversal of multidrug resistance in human 2780AD cells assessed as [3H]vincristine accumulation at 10 ug/mL after 2 hrs relative to control
[5] = Reversal of multidrug resistance in human 2780AD cells assessed as [3H]vincristine accumulation at 10 ug/mL after 2 hrs relative to verapamil
[6] = Reversal of multidrug resistance in human 2780AD cells assessed as [3H]vincristine accumulation at 0.1 ug/mL after 2 hrs relative to control

Structure (SMILES)	Activity [1]	Activity [2]	Activity [3]	Activity [4]	Activity [5]	Activity [6]
C=C1[C@@H](OC(C)=O)CC[C@]2(C)[C@@H]1C[C@@H]1C[C@H](OC(C)=O)C(C)=C([C@@H](OC(C)=O)[C@@H]2OC(C)=O)C1(C)C [TAXUSIN]	228%	157%	102%	461%	136%	106%
COc1ccc(CCN(C)CCCC(C#N)(c2ccc(OC)c(OC)c2)C(C)C)cc1OC (centres undefined) [VERAPAMIL]	145%	–	–	352%	–	104%
